Test results taken from patent publication US20190092802A1, “ANTAGONISTS OF NK1 RECEPTORS DERIVED FROM CARBOHYDRATES, PRODUCTION METHOD AND MEDICAL USE” (CONSEJO SUPERIOR DE INVESTIGACIONES CIENTIFICAS (CSIC), priority 2015, published 2019).
Entries after “also recorded” stand apart in the source; their conditions may differ.

Tests used:
[1] = system: A549 human cells from lung adenocarcinoma; assay: MTT cell viability assay, A549; assay type: cell-based; details: for IC50: A549, 48 hours exposure, MTT; for anticancer activity against the cancer line (in words): A549 lung cancer cells
[2] = system: MRC5 non-malignant human lung cells; assay: MTT cell viability assay, MRC-5; assay type: cell-based
[3] = molecular target: T1, NK1 receptor (Homo sapiens, UniProt P25103); assay: Displacement of marked SP ([125I]BH-SP); assay type: binding; details: Concentration 6.0E−05 M; marked SP 0.15 nM, 60 minutes at room temperature
Target sequence in this assay (P25103 whole entry): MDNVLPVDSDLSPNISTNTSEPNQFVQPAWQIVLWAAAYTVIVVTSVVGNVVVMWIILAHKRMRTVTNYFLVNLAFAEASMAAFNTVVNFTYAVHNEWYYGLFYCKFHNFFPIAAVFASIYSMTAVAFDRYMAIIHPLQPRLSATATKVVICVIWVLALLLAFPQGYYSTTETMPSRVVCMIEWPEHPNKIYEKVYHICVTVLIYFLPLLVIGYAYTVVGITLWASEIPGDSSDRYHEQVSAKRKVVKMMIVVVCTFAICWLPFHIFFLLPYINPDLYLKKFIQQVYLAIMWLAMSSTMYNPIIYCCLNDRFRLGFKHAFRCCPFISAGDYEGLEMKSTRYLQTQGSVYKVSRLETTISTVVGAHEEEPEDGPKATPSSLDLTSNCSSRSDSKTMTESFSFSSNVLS

[4] = molecular target: T1, NK1 receptor; assay: IP-One assay (SP-induced IP1 accumulation in CHO cells transfected with NK1); assay type: cell-based; set-up: expressed in transfected cells; host or cells: CHO cells, transient electroporation
Protocol: Non-essential amino acids were also added to the medium (Invitrogen).
Transient transfection of the cell lines was carried out by electroporation in a volume of 300 μL with a total of 10 μg DNA (pRK5 Neo-NK1 wild type) plasmid (using up to 500 ng of pRK5como carrier DNA to achieve 10 μg) and with 10^7 cells in the electroporation buffer (50 mM K2HPO4, 20 mM CH3COOK, 20 mM KOH and 26 mM MgSO4, pH 7.4). After electroporation (280 V, 1 mF, GeneZapper 450/2500; IBI, New Haven, Conn., USA), the cells were suspended in a complete medium and seeded on well culture plates with a density of 10^5 per well. The 96-well culture plates were first covered with polyornithine diluted in PBS, then incubated at 37° C. for 30 minutes and they were then washed with PBS before being seeded.
The activation and inhibition of the route of the IP by the NK1 receptor agonists and antagonists, respectively, was determined using the dynamic IP-One kit (Cisbio Bioassays, Bagnols-sur-Cèze, France). After transfection, 10^5 cells were distributed in 100 pll of a complete medium into a 96-well assay plate (Greiner Bio-One, Courtaboeuf, France). After 24 hours, the medium was eliminated and replaced by 40 μl of an incubation medium that contained the agonist and/or antagonist in an appropriate concentration.
Target sequence in this assay (P25103 whole entry, species assumed): as the sequence (P25103 whole entry) above

[5] = Homo sapiens, MRC5, MRC-5, 48 hours exposure

Compound	anticancer activity against the cancer line (in words) [1]	IC50 ([1]; Homo sapiens)	IC50 [2, 5]	% Inhibition of the control specific affinity [3]	also measured
(R)-{1-[3,5-bis-(trifluoromethyl)phenyl]ethyl} 2-O-p-fluorobenzyl-(R)-[4,5-O-benzylidene]-β-D-D-galactopyranoside [Compound 1]	most active				IC50 [1]: 28 ± 6.85 µM; IC50 ([2]; MRC-5, 48 hours exposure): 141 ± 1.82 µM
COc1ccccc1CN[C@H]1C2CCN(CC2)[C@H]1C(c1ccccc1)c1ccccc1 [CP-96345, reference compound]		46.8 ± 8.89 µM	57.9 ± 8.07 µM		
C[C@@H](O[C@H]1O[C@@H]2CO[C@@H](c3ccccc3)O[C@@H]2[C@H](O)[C@H]1OCc1ccc(F)cc1)c1cc(C(F)(F)F)cc(C(F)(F)F)c1 [Compound 2, (R)-{1-[3,5-bis-(trifluoromethyl)phenyl]ethyl} 2-O-p-fluorobenzyl-(R)-[4,5-O-benzylidene]-α-D-galactopyranoside]	most active; also recorded: matches those of cisplatin	19.3 ± 7.93 µM	120 ± 3.45 µM	≥100%	NK1 receptor antagonist activity (in words) ([4]; IP-One assay, inhibition of SP activity): excellent inhibitors of SP activity; also recorded: greatest antagonist activity
CC(=O)N[C@@H](Cc1c[nH]c2ccccc12)C(=O)OCc1cc(C(F)(F)F)cc(C(F)(F)F)c1 [L-732,138, reference compound]					Kinact ([4]; inhibition of substance P (SP), dose-response curves, IP-One assay): 8.37E−08±2.63 M; SP inhibition ([4]; ligand concentration of 10^−6M): 69%
C[C@@H](O[C@H]1OCCN(Cc2n[nH]c(=O)[nH]2)[C@H]1c1ccc(F)cc1)c1cc(C(F)(F)F)cc(C(F)(F)F)c1 [Aprepitant, reference compound]		15.7 ± 3.46 µM	22.1 ± 6.92 µM		
C[C@@H](O[C@H]1OC[C@@H]2OC(C)(C)O[C@@H]2[C@H]1OCc1ccc(F)cc1)c1cc(C(F)(F)F)cc(C(F)(F)F)c1 [Compound 8]				≥100%	
